In the supplement of paper PMC11208160:

Assay: recombinant barcode read abundance after kanamycin selection (control-corrected) (log10(CPM+1)); higher = more efficient recombination; sequences stand for … in AGTGCAGAGAAAATCGGCCAGTTTTCTCTGCCTGCAGTCCGCATGCCGT…AGATTTATGCAGCGGACTGCCTTTCTCCCAAAGTGATAAACCGGACAGTATCATGGACCGGTTTTCCCGGTAATCCGTATTTGCAAGGTTGGTTTCACT; site = the 11-nt target
Method: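 Pooled E. coli target-specificity screen for the IS621 bridge recombinase. Each library plasmid pairs an 11-nt target (CT core) with a bridge RNA whose target-binding loop (9-nt LTG + 4-nt RTG) is reprogrammed; the rest of the 177-nt WT IS621 bridge RNA scaffold is fixed. The plasmid is co-electroporated with a WT donor plasmid; recombinase is induced with 0.1 mM IPTG and recombinants are selected on kanamycin. Recombinant barcodes are sequenced, converted to CPM, averaged over two biological replicates and corrected by the unselected control CPM. Molecule = full bridge RNA written as DNA: LTG = specificity nt 1-9, RTG = reverse complement of specificity nt 8-11, in the WT scaffold.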
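Further: IS621 recombinase and bridge RNA in Escherichia coli cells.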

Sequence	recombinant barcode read abundance (log10)
AGGACAACTTGGGTTCTAACCTGTTGCCT (site AGGACAACTAG)	0.048
AGGACAACTTGGGTTCTAACCTGTTGCCT (site AGTACAACTAG)	0.181
AGGAGCCCTTGGGTTCTAACCTGTTGCCT (site AGGAGCCCTAG)	1.48
AGGAGCCCTTGGGTTCTAACCTGTTGCCT (site AGGAGCCCTTG)	0.0624
AGGAGTACTTGGGTTCTAACCTGTTGCTT (site AGGAGTACTAA)	0.761
AGGAGTACTTGGGTTCTAACCTGTTGCTT (site GCATCCTCTTG)	0.12
AGGCCCACTTGGGTTCTAACCTGTTGCAT (site AGGCCCACTAT)	2.12
AGGCCCACTTGGGTTCTAACCTGTTGCAT (site GCTGAGTCTTA)	0.109
AGGCCGGCTTGGGTTCTAACCTGTTGCCG (site AGGCCGCCTCG)	0.294
AGGCCGGCTTGGGTTCTAACCTGTTGCCG (site AGGCCGGCTCG)	0.329
AGGCCGTCTTGGGTTCTAACCTGTTGCGG (site AGGCCGTCTCC)	0.815
AGGCCGTCTTGGGTTCTAACCTGTTGCGG (site CACTACCCTAA)	0.357
AGGCGCCCTTGGGTTCTAACCTGTTGCAC (site AGGCGCCCTAT)	0.249
AGGCGCCCTTGGGTTCTAACCTGTTGCAC (site AGGCGCCCTCT)	0.112
AGGCGCCCTTGGGTTCTAACCTGTTGCAC (site AGGCGCCCTGT)	1.33
AGGCGCCCTTGGGTTCTAACCTGTTGCAC (site AGGCGCCCTTT)	0.0439
AGGCGTACTTGGGTTCTAACCTGTTGCCT (site AGACGTACTAG)	0.0558
AGGCGTACTTGGGTTCTAACCTGTTGCCT (site AGCCGTACTAG)	0.302
AGGCGTACTTGGGTTCTAACCTGTTGCCT (site AGGCGTACTAG)	0.465
AGGCGTACTTGGGTTCTAACCTGTTGCCT (site AGTCGTACTAG)	0.0768
AGGCGTCCTTGGGTTCTAACCTGTTGCCA (site AGGCGTCCTAG)	0.181

Sequence	recombinant barcode read abundance (log10)
AGGCGTCCTTGGGTTCTAACCTGTTGCCA (site AGGCGTCCTCG)	0.056
AGGCGTCCTTGGGTTCTAACCTGTTGCCA (site AGGCGTCCTGG)	0.315
AGGCGTCCTTGGGTTCTAACCTGTTGCCA (site AGGCGTCCTTG)	0.802
AGGCTCCCTTGGGTTCTAACCTGTTGCCT (site AGACTCCCTAG)	0.193
AGGCTCCCTTGGGTTCTAACCTGTTGCCT (site AGCCTCCCTAG)	0.0453
AGGCTCCCTTGGGTTCTAACCTGTTGCCT (site AGGCTCCCTAG)	0.547
AGGCTCCCTTGGGTTCTAACCTGTTGCCT (site AGTCTCCCTAG)	0.619
AGGCTGTCTTGGGTTCTAACCTGTTGCCT (site AGGCTGACTAG)	0.54
AGGCTGTCTTGGGTTCTAACCTGTTGCCT (site AGGCTGCCTAG)	0.613
AGGCTGTCTTGGGTTCTAACCTGTTGCCT (site AGGCTGGCTAG)	0.0597
AGGCTGTCTTGGGTTCTAACCTGTTGCCT (site AGGCTGTCTAG)	1.84
AGGGAAGCTTGGGTTCTAACCTGTTGCCT (site AGGGAAGCTAG)	0.879
AGGGAAGCTTGGGTTCTAACCTGTTGCCT (site AGGGCAGCTAG)	0.385
AGGGAAGCTTGGGTTCTAACCTGTTGCCT (site AGGGGAGCTAG)	0.768
AGGGAAGCTTGGGTTCTAACCTGTTGCCT (site AGGGTAGCTAG)	0.391
AGGGAATCTTGGGTTCTAACCTGTTGCCT (site AGAGAATCTAG)	0.759
AGGGAATCTTGGGTTCTAACCTGTTGCCT (site AGCGAATCTAG)	0.124
AGGGAATCTTGGGTTCTAACCTGTTGCCT (site AGGGAATCTAG)	1.04
AGGGAATCTTGGGTTCTAACCTGTTGCCT (site AGTGAATCTAG)	0.182
AGGGATACTTGGGTTCTAACCTGTTGCGT (site AGGGATACTAC)	3.32
AGGGATACTTGGGTTCTAACCTGTTGCGT (site ATGGATACTAC)	1.58

Sequence	recombinant barcode read abundance (log10)
AGGGATACTTGGGTTCTAACCTGTTGCTT (site AGGGAGACTAA)	0.303
AGGGATACTTGGGTTCTAACCTGTTGCTT (site AGGGATACTAA)	1.42
AGGGCATCTTGGGTTCTAACCTGTTGCCT (site AGGGCATCTAG)	0.122
AGGGCATCTTGGGTTCTAACCTGTTGCCT (site AGGGCGTCTCG)	0.245
AGGGTCGCTTGGGTTCTAACCTGTTGCCT (site AGGGTCGCTAG)	2.5
AGGGTCGCTTGGGTTCTAACCTGTTGCCT (site CACAGTCCTTA)	0.344
AGGGTGCCTTGGGTTCTAACCTGTTGCTA (site AGGGTGCCTTA)	2.11
AGGGTGCCTTGGGTTCTAACCTGTTGCTA (site AGGGTGTCTCA)	0.106
AGGGTTCCTTGGGTTCTAACCTGTTGCTT (site AGGGTTCCTAA)	2.05
AGGGTTCCTTGGGTTCTAACCTGTTGCTT (site TCATGGGCTCT)	0.0235
AGGTAGACTTGGGTTCTAACCTGTTGCCA (site AGGAAGACTTG)	0.0263
AGGTAGACTTGGGTTCTAACCTGTTGCCA (site AGGCAGACTTG)	0.583
AGGTAGACTTGGGTTCTAACCTGTTGCCA (site AGGGAGACTTG)	0.179
AGGTAGACTTGGGTTCTAACCTGTTGCCA (site AGGTAGACTTG)	1.5
AGGTCACCTTGGGTTCTAACCTGTTGCGT (site AGGTCACCTAA)	0.276
AGGTCACCTTGGGTTCTAACCTGTTGCGT (site AGGTCACCTAC)	2.82
AGGTCACCTTGGGTTCTAACCTGTTGCGT (site AGGTCACCTAG)	0.536
AGGTCACCTTGGGTTCTAACCTGTTGCGT (site AGGTCACCTAT)	1.08
AGGTCACCTTGGGTTCTAACCTGTTGCTT (site AGGTCACCTAA)	0.941
AGGTCACCTTGGGTTCTAACCTGTTGCTT (site AGGTCACCTAC)	0.0772
AGGTCACCTTGGGTTCTAACCTGTTGCTT (site AGGTCACCTAG)	0.914

Sequence	recombinant barcode read abundance (log10)
AGGTCACCTTGGGTTCTAACCTGTTGCTT (site AGGTCACCTAT)	1.24
AGGTCCTCTTGGGTTCTAACCTGTTGCGT (site AGGTCCTCTAA)	0.295
AGGTCCTCTTGGGTTCTAACCTGTTGCGT (site AGGTCCTCTAC)	2.67
AGGTCCTCTTGGGTTCTAACCTGTTGCGT (site AGGTCCTCTAG)	0.73
AGGTCCTCTTGGGTTCTAACCTGTTGCGT (site AGGTCCTCTAT)	1.71
AGGTCTGCTTGGGTTCTAACCTGTTGCCT (site AGGTATGCTAG)	0.321
AGGTCTGCTTGGGTTCTAACCTGTTGCCT (site AGGTCTGCTAG)	0.58
AGGTCTGCTTGGGTTCTAACCTGTTGCCT (site AGGTGTGCTAG)	0.12
AGGTCTGCTTGGGTTCTAACCTGTTGCCT (site AGGTTTGCTAG)	0.0282
AGGTGTGCTTGGGTTCTAACCTGTTGCCT (site AGGTATGCTAG)	0.289
AGGTGTGCTTGGGTTCTAACCTGTTGCCT (site AGGTCTGCTAG)	0.123
AGGTGTGCTTGGGTTCTAACCTGTTGCCT (site AGGTGTGCTAG)	1.19
AGGTGTGCTTGGGTTCTAACCTGTTGCCT (site AGGTTTGCTAG)	0.502
AGGTTCCCTTGGGTTCTAACCTGTTGCTA (site AGGTTCCCTAA)	0.0211
AGGTTCCCTTGGGTTCTAACCTGTTGCTA (site AGGTTCCCTCA)	0.0107
AGGTTCCCTTGGGTTCTAACCTGTTGCTA (site AGGTTCCCTGA)	0.0194
AGGTTCCCTTGGGTTCTAACCTGTTGCTA (site AGGTTCCCTTA)	1.32
AGGTTCCCTTGGGTTCTAACCTGTTGCTT (site AGGTTCCCTAA)	1.41
AGGTTCCCTTGGGTTCTAACCTGTTGCTT (site AGGTTCCCTCA)	0.0899
